Measurements taken from PMC3677765 (Forensic science international, 2012).

What was measured:
[1] = positive samples among 80 subjects (JWH-018 in 9, JWH-073 in 6); cited from earlier work
Post-preparative = assay type: physicochemical; conditions: extracted samples stored in the auto-sampler 72 h at room temperature
[2] = Blood concentrations in mice after inhalation of "Magic Gold" smoke; assay type: in vivo, C57BL6 mice
[3] = Brain concentrations in mice after inhalation of "Magic Gold" smoke; assay type: in vivo, C57BL6 mice
[4] = next specimen collected 18 h later (after the 6 h sample); cited from earlier work

Compound | Serum concentration (mean) [1] | Degradation (auto-sampler stability) (Post-preparative) | JWH-073 blood concentration higher than JWH-018 (mean increase) ([2]; 20 min after exposure) | JWH-073 brain concentration higher than JWH-018 (mean increase) ([3]; 20 min after exposure) | Brain concentration (range) ([3]; 20 h post exposure, five mice) | Detection in blood samples ([2]; 20 min and 20 h after exposure) | Detection in brain samples ([3]; 20 min and 20 h after exposure) | Serum detection [4]
CCCCn1cc(C(=O)c2cccc3ccccc23)c2ccccc21 [JWH-073, Naphthalen-1-yl-(1-butylindol-3-yl)methanone] | 0.42 ng/mL | approximately 20% | 53% | 84% | not detected |  |  | 
CCCCCn1cc(C(=O)c2ccc(Cl)c3ccccc23)c2ccccc21 [JWH-398, 4-chloronaphthalen-1-yl-(1-penty-lindolin-3-yl)methanone] |  |  |  |  |  | not detected | not detected | 
CCCCCn1cc(C(=O)c2cccc3ccccc23)c2ccccc21 [JWH-018, Naphthalen-1-yl-(1-pentylindol-3-yl)methanone] | 1.84 ng/mL |  |  |  |  |  |  | undetectable
